What all share (assay): relative viability (nuclei count vs DMSO), 5 days (fraction); higher = more cells survive
Compound in the test “Metformin + Olaparib”: CN(C)C(=N)NC(=N)N [Metformin] + O=C(c1cc(Cc2n[nH]c(=O)c3ccccc23)ccc1F)N1CCN(C(=O)C2CC2)CC1 [Olaparib] (partner 8 µM)
The gist of the method:
(§1)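 Dosing by pin tool came one day after lung cancer cell lines were seeded in 1536-well plates, using either one drug or a fixed anchor-drug dose plus five library-drug doses (not always all listed) in √10 steps. After 5 days, nuclei were counted on 4× images. Relative viability is treated-well nuclei count divided by vehicle-well nuclei count, and values are medians of duplicate plates.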

Compound in the test “Apatinib + OSI-027”: N#CC1(c2ccc(NC(=O)c3cccnc3NCc3ccncc3)cc2)CCCC1 [Apatinib] + COc1cccc2cc(-c3nc([C@H]4CC[C@H](C(=O)O)CC4)n4ncnc(N)c34)[nH]c12 [OSI-027] (partner 0.5 µM)
The method in brief:
as §1

Compound in the test “Apatinib + Crizotinib”: N#CC1(c2ccc(NC(=O)c3cccnc3NCc3ccncc3)cc2)CCCC1 [Apatinib] + C[C@@H](Oc1cc(-c2cnn(C3CCNCC3)c2)cnc1N)c1c(Cl)ccc(F)c1Cl [Crizotinib] (partner 1 µM)
The method in brief:
as §1

Compound in the test “Apatinib + Trametinib”: N#CC1(c2ccc(NC(=O)c3cccnc3NCc3ccncc3)cc2)CCCC1 [Apatinib] + CC(=O)Nc1cccc(-n2c(=O)n(C3CC3)c(=O)c3c(Nc4ccc(I)cc4F)n(C)c(=O)c(C)c32)c1 [Trametinib] (partner 0.02 µM)
The gist of the method: as §1

As for SK-MES-1, the relative viability was 0.305 with Metformin + Olaparib (first compound 10 µM); 0.352 in the test with Metformin + Olaparib (first compound 31.62 µM); 0.406 with Metformin + Olaparib (first compound 100 µM); 0.381 with Metformin + Olaparib (first compound 316.23 µM); 0.363 in the test with Metformin + Olaparib (first compound 1000 µM); 0.589 in the test with Apatinib + OSI-027 (first compound 0.08 µM). Besides, the relative viability with Apatinib + OSI-027 (first compound 0.253 µM) amounted to 0.585; with Apatinib + OSI-027 (first compound 0.8 µM), 0.6; with Apatinib + OSI-027 (first compound 2.53 µM), 0.496; in the test with Apatinib + OSI-027 (first compound 8 µM) it was 0.37; with Apatinib + Crizotinib (first compound 0.08 µM), 0.983; in the test with Apatinib + Crizotinib (first compound 0.253 µM), 0.937. For the same cell line, the relative viability in the test with Apatinib + Crizotinib (first compound 0.8 µM) came to 0.897; with Apatinib + Crizotinib (first compound 2.53 µM), 0.955; with Apatinib + Crizotinib (first compound 8 µM), 0.796; in the test with Apatinib + Trametinib (first compound 0.08 µM) it was 0.585; with Apatinib + Trametinib (first compound 0.253 µM), 0.642; with Apatinib + Trametinib (first compound 0.8 µM), 0.567. The relative viability with Apatinib + Trametinib (first compound 2.53 µM) was 0.64; in the test with Apatinib + Trametinib (first compound 8 µM), 0.514.

As to NCI-H2170, the relative viability is 0.45 with Metformin + Olaparib (first compound 10 µM); 0.468 in the test with Metformin + Olaparib (first compound 31.62 µM); 0.536 in the test with Metformin + Olaparib (first compound 100 µM); 0.487 in the test with Metformin + Olaparib (first compound 316.23 µM); 0.491 with Metformin + Olaparib (first compound 1000 µM); 0.803 with Apatinib + OSI-027 (first compound 0.08 µM). The relative viability with Apatinib + OSI-027 (first compound 0.253 µM) was determined as 0.752; with Apatinib + OSI-027 (first compound 0.8 µM), 0.692; with Apatinib + OSI-027 (first compound 2.53 µM), 0.594; in the test with Apatinib + OSI-027 (first compound 8 µM) it was 0.674; with Apatinib + Crizotinib (first compound 0.08 µM) it was 1.23; with Apatinib + Crizotinib (first compound 0.253 µM), 1.22. Besides, the relative viability with Apatinib + Crizotinib (first compound 0.8 µM) was found to be 1.11; in the test with Apatinib + Crizotinib (first compound 2.53 µM) it was 1.12; with Apatinib + Crizotinib (first compound 8 µM), 1.07; in the test with Apatinib + Trametinib (first compound 0.08 µM), 0.942; in the test with Apatinib + Trametinib (first compound 0.253 µM) it was 0.881; with Apatinib + Trametinib (first compound 0.8 µM), 0.857. Besides, the relative viability was found to be 0.822 with Apatinib + Trametinib (first compound 2.53 µM) and 0.737 with Apatinib + Trametinib (first compound 8 µM).

On to NCI-H1648, for which the relative viability was 1.14 with Metformin + Olaparib (first compound 31.62 µM); 0.502 in the test with Metformin + Olaparib (first compound 100 µM); 1.07 in the test with Metformin + Olaparib (first compound 316.23 µM); 1.04 in the test with Metformin + Olaparib (first compound 1000 µM); 0.272 in the test with Apatinib + OSI-027 (first compound 0.08 µM); 0.253 with Apatinib + OSI-027 (first compound 0.253 µM). Moreover, the relative viability in the test with Apatinib + OSI-027 (first compound 0.8 µM) amounted to 0.265; with Apatinib + OSI-027 (first compound 2.53 µM), 0.267; with Apatinib + OSI-027 (first compound 8 µM), 0.261; in the test with Apatinib + Trametinib (first compound 0.08 µM), 0.466; with Apatinib + Trametinib (first compound 0.253 µM), 0.467; in the test with Apatinib + Trametinib (first compound 0.8 µM) it was 0.39. The relative viability was found to be 0.537 with Apatinib + Trametinib (first compound 2.53 µM) and 0.335 with Apatinib + Trametinib (first compound 8 µM).

With NCI-H1915, the relative viability stood at 0.24 with Metformin + Olaparib (first compound 31.62 µM); 0.228 with Metformin + Olaparib (first compound 100 µM); 0.222 with Metformin + Olaparib (first compound 316.23 µM); 0.244 with Metformin + Olaparib (first compound 1000 µM); 0.67 with Apatinib + OSI-027 (first compound 0.08 µM); 0.614 with Apatinib + OSI-027 (first compound 0.253 µM). The relative viability in the test with Apatinib + OSI-027 (first compound 0.8 µM) is 0.672; with Apatinib + OSI-027 (first compound 2.53 µM), 0.537; in the test with Apatinib + OSI-027 (first compound 8 µM), 0.503; in the test with Apatinib + Crizotinib (first compound 0.08 µM) it was 0.945; with Apatinib + Crizotinib (first compound 0.253 µM) it was 0.864; with Apatinib + Crizotinib (first compound 0.8 µM), 0.855. Also, the relative viability with Apatinib + Crizotinib (first compound 2.53 µM) is 0.819; with Apatinib + Crizotinib (first compound 8 µM) it was 0.78; with Apatinib + Trametinib (first compound 0.08 µM), 0.321; in the test with Apatinib + Trametinib (first compound 0.253 µM) it was 0.315; with Apatinib + Trametinib (first compound 0.8 µM), 0.311; with Apatinib + Trametinib (first compound 2.53 µM), 0.302. The relative viability with Apatinib + Trametinib (first compound 8 µM) came to 0.286.

On to HCC-366, for which the relative viability with Metformin + Olaparib (first compound 10 µM) is 0.255; with Metformin + Olaparib (first compound 31.62 µM) it was 0.21; in the test with Metformin + Olaparib (first compound 100 µM), 0.213; with Metformin + Olaparib (first compound 316.23 µM), 0.203; in the test with Metformin + Olaparib (first compound 1000 µM), 0.213; in the test with Apatinib + OSI-027 (first compound 0.08 µM) it was 1.06. Also, the relative viability in the test with Apatinib + OSI-027 (first compound 0.253 µM) was 0.88; with Apatinib + OSI-027 (first compound 0.8 µM) it was 0.815; in the test with Apatinib + OSI-027 (first compound 2.53 µM) it was 0.744; with Apatinib + OSI-027 (first compound 8 µM), 0.494; in the test with Apatinib + Crizotinib (first compound 0.08 µM), 0.437; in the test with Apatinib + Crizotinib (first compound 0.253 µM), 0.587. Also, the relative viability with Apatinib + Crizotinib (first compound 0.8 µM) amounted to 0.605; with Apatinib + Crizotinib (first compound 2.53 µM) it was 0.466; in the test with Apatinib + Crizotinib (first compound 8 µM), 0.547; with Apatinib + Trametinib (first compound 0.08 µM), 0.336; in the test with Apatinib + Trametinib (first compound 0.253 µM), 0.393; in the test with Apatinib + Trametinib (first compound 0.8 µM), 0.369. Moreover, the relative viability with Apatinib + Trametinib (first compound 2.53 µM) is 0.314; in the test with Apatinib + Trametinib (first compound 8 µM), 0.273.

In the case of HOP-62, the relative viability came to 0.189 with Metformin + Olaparib (first compound 10 µM); 0.2 with Metformin + Olaparib (first compound 31.62 µM); 0.189 in the test with Metformin + Olaparib (first compound 100 µM); 0.251 in the test with Metformin + Olaparib (first compound 316.23 µM); 0.221 with Metformin + Olaparib (first compound 1000 µM); 0.917 with Apatinib + OSI-027 (first compound 0.08 µM). In addition, the relative viability came out at 0.874 with Apatinib + OSI-027 (first compound 0.253 µM); 0.799 in the test with Apatinib + OSI-027 (first compound 0.8 µM); 0.714 in the test with Apatinib + OSI-027 (first compound 2.53 µM); 0.605 with Apatinib + OSI-027 (first compound 8 µM); 0.989 with Apatinib + Crizotinib (first compound 0.08 µM); 0.868 with Apatinib + Crizotinib (first compound 0.8 µM). In addition, the relative viability with Apatinib + Crizotinib (first compound 2.53 µM) was determined as 0.935; in the test with Apatinib + Crizotinib (first compound 8 µM) it was 0.654; with Apatinib + Trametinib (first compound 0.08 µM) it was 0.411; with Apatinib + Trametinib (first compound 0.253 µM) it was 0.395; with Apatinib + Trametinib (first compound 0.8 µM), 0.36; with Apatinib + Trametinib (first compound 2.53 µM), 0.422. Besides, the relative viability with Apatinib + Trametinib (first compound 8 µM) came to 0.394.

As for RERF-LC-KJ, the relative viability with Metformin + Olaparib (first compound 10 µM) was 0.651; with Metformin + Olaparib (first compound 31.62 µM) it was 0.715; with Metformin + Olaparib (first compound 100 µM), 0.757; with Metformin + Olaparib (first compound 316.23 µM), 0.625; with Metformin + Olaparib (first compound 1000 µM) it was 0.63; with Apatinib + OSI-027 (first compound 0.08 µM) it was 0.554. For the same cell line, the relative viability in the test with Apatinib + OSI-027 (first compound 0.253 µM) came out at 0.592; with Apatinib + OSI-027 (first compound 0.8 µM), 0.533; with Apatinib + OSI-027 (first compound 2.53 µM), 0.51; with Apatinib + OSI-027 (first compound 8 µM) it was 0.497; in the test with Apatinib + Crizotinib (first compound 0.08 µM), 0.776; with Apatinib + Crizotinib (first compound 0.253 µM), 0.834. Further, the relative viability with Apatinib + Crizotinib (first compound 0.8 µM) was 0.778; with Apatinib + Crizotinib (first compound 2.53 µM), 0.704; in the test with Apatinib + Crizotinib (first compound 8 µM), 0.629; in the test with Apatinib + Trametinib (first compound 0.08 µM) it was 0.89; in the test with Apatinib + Trametinib (first compound 0.253 µM), 0.849; with Apatinib + Trametinib (first compound 0.8 µM) it was 0.891. In addition, the relative viability with Apatinib + Trametinib (first compound 2.53 µM) came to 0.758; with Apatinib + Trametinib (first compound 8 µM), 0.711.

The values above are taken from the supplement of paper PMC10307832.
